Measured values from patent publication EP0200211A1, “Diagnostic radiopharmaceutical compounds” (THE RESEARCH FOUNDATION OF STATE UNIVERSITY OF NEW YORK, priority 1985, dated 1986).

Assay: Autoradiogram comparison of rat brain distribution of radioactivity after intravenous injection
Assay type: in vivo, Sprague-Dawley male rat
Conditions: autoradiograms at 2 and 15 minutes after injection, statement concerns the second (15 minute) autoradiogram
Excerpt: • Figure 1 is an autoradiogram of rat brain distribution of radioactivity two (2) minutes after intravenous injection with a radioactive compound of the prior art. • Figure 2 is an autoradiogram of rat brain distribution of radioactivity fifteen (15) minutes after intravenous injection with a radioactive compound of the prior art. • Figure 3 is an autoradiogram of rat brain distribution of radioactivity two (2) minutes after intravenous injection with a radioactive compound of the invention. • Figure 4 is an autoradiogram of rat brain distribution of radioactivity fifteen (15) minutes after intravenous injection with a radioactive compound of the invention.
Autoradiograms were made of Sprague-Dawley male rat brains of animals that were intravenously injected with 6-[N,N-diethylamino]methyl-3,3,10,10-tetramethyl-1,2-dithia-5,8-diazacylcodecane technetium-99m complex of the invention and 10,10,13,13-tetramethyl-11,12-dithia-8,15-diazaspiro-[5.9)pentadecane-technetium-99m complex of the prior art. The autoradiograms were taken at 2 and 15 minute intervals after injection.

Structure (SMILES)	definition of the autoradiogram of rat brain
CCN(CC)CC1CNCC(C)(C)SSC(C)(C)CN1.[99Tc] (centres unmarked) [6-[N,N-diethylamino]methyl-3,3,10,10-tetramethyl-1,2-dithia-5,8-diazacylcodecane technetium-99m complex]	sharp definition obtained and retained
CC1(C)CNCC2(CCCCC2)NCC(C)(C)SS1.[99Tc] [10,10,13,13-tetramethyl-11,12-dithia-8,15-diaza spiro [5.9] pentadecane-technetium-99m complex]	lack of clear definition
